According to US20040058851A1, “Specific autoimmune reactions against isomerised/optically inverted epitopes: application for diagnosis of autoimmune diseases” (priority 1999, published 2004):
No end group written: not given here.

How the values were obtained:
[1] = test system: immunoaffinity purified RA auto-antibodies; test: Immuno-blotting of cellulose-bound spot peptides with immunoaffinity purified RA auto-antibodies (Example 5); assay type: binding, human; conditions: IgM RF eluted from IgG Sepharose, 1 μg/mL
Source text: Analysis of IgM auto-antibodies opens up the possibility of removing endogenous IgG from the serum samples prior to analysis for auto-antibodies.
1. IgG is coupled to CNBr activated Sepharose using the manufacturers instructions (Pharmacia, Upsala, Sweden).
2. The IgG Sepharose is packed in a suitable column (i.e. a disposable DG10 column, BioRad laboratories, Richmond, Calif.). The column is washed with at least 10 column volumes PBS and with 10 column volumes 0.1 M sodium acetate, 0.15 M sodium chloride pH 3.5 and finally equilibrated in PBS.
3. Serum from RA patients is diluted 10 times in PBS and loaded on the column. The column is washed with PBS until the absorbency (OD 280 nm) reaches base-line.
4. Bound RF's are eluted with 0.1 M sodium acetate, 0.15 M sodium chloride pH 3.5.
5. IgM is separated from IgG and IgA by gel-filtration on a Sephadex G-200 column in 0.1 M sodium acetate, 0.15 M sodium chloride pH 3.5.
6. Eluted IgM is diluted in PBS-BT to 1 μg/mL and assayed as described below.
Seven amino-acid peptides extending over the Asn-315 residue were synthesised by spot synthesis using Whatman 540 paper (Maidstone, U.K.), using the previously described procedures (Frank, 1992, Kramer et al 1994). The peptides were automatically prepared using a spot synthesis method (Abimed, Langenfeld, F R G). The following peptides were synthesised, covalently attached via the carboxy-terminus: […]

[2] = test system: human immunoglobulin in sera from patients with multiple sclerosis; test: Homogeneous RIA with 125I BSA-BS3 MBP octapeptide tracer in MS and control sera (Example 6); assay type: binding; conditions: free peptide 10 μg/ml, 25 μl; % inhibition higher in MS sera than control sera (p=0.008); FIG. 9C
Source text: For this purpose the MBP derived octapeptide Pro-Ser-Glu-γ-Gly-Lys-Gly-Arg-Gly (γL) was manufactured synthetically using standard FMOC chemistry. The peptide was conjugated to bovine serum albumin […] by Bis-[sulfosuccinimidyl]suberate(BS^3) according to the manufacturers instructions (Pierce) and iodinated with ^125I using the chloramine T protocol as described in Example 4.
Serum from 9 MS-patients and 8 healthy persons are reacted overnight with ^125I—BSA-S^3-Pro-Ser-Glu-y-Gly-Lys-Gly-Arg-Gly followed by precipitation of immune complexes with protein A Sepharose. Serum samples are diluted 1:200 in IMP buffer. The ^125I BSA-BS^3-Pro-Ser-Glu-y-Gly-Lys-Gly-Arg-Gly tracer is diluted in IMP buffer (to an activity of 100000 CPM/25 μl). Seventy-five Al of diluted serum sample is mixed with 25 μl tracer and 25 μl of either IMP buffer or free (unconjugated/unlabelled) Pro-Ser-Glu-y-Gly-Lys-Gly-Arg-Gly peptide (in a concentration of 10 μg/ml in IMP buffer) is added to this mixture. This mixture incubated overnight at 4° C. Protein A Sepharose (PAS) 20 μl/sample vial is weighed out and washed 3 times with 10 ml IMP washing buffer, and transferred to eppendorf 1.5 ml tubes using a repeater pipette. The PAS is sedimented by centrifugation at 2000 RPM 2 min., and the supernatant is aspirated using a suction device (or a pipette). […]

RA autoantibodies = test: Competition ELISA: sera pre-incubated with peptides, then Thy-GA-Trp-Leu-*Asx-Gly-Lys-Glu-Tyr coated plates (Example 3); assay type: binding, human; conditions: 6 RA sera; 50 μl competitor at 50 μg/ml; 17 hours at 4° C.; FIG. 6
Procedure: The binding of RA autoantibodies to the Thy-GA-Trp-Leu-*Asx-Gly-Lys-Glu-Tyr coated plates as described above could be competed out by pre-incubating the sera with Trp-Leu-*Asx-Gly-Lys-Glu-Tyr peptide in solution. The experiment was carried out as follows. Serum samples were diluted one-hundred fold in 10 mM Na-phosphate, 140 mM NaCl, 0.1% tween-20, 1% BSA pH 7.4 (assay buffer). Two-hundred μl was added to 1.5 ml polypropylene tubes followed by addition of 50 μl of the following reagents dissolved in assay buffer at a concentration of 50 μg/ml:
1. Trp-Leu-Asp-β-Gly-Lys-Glu-Tyr. (βL form of the epitope)
2. Trp-Leu-Asn-Gly-Lys-Glu-Tyr (αL form of the epitope)
3. Thy-GA-Trp-Leu-*Asx-Gly-Lys-Glu-Tyr conjugate (prepared as described in example 2).
The tubes were placed at 4° C. for 17 hours, and one-hundred μl of the mixture was added into MTP coated with Thy-GA-Trp-Leu-*Asx-Gly-Lys-Glu-Tyr conjugate. The assay was performed as described above under example 2.

[3] = test system: auto-antibodies reactive with isomerised IgG Fc Asn-315 derived peptides; test: Homogeneous RIA with 125I Thy-GA-Trp-Leu-*Asx-Gly-Lys-Glu-Tyr tracer, competition with peptides (Example 4); assay type: binding, human; conditions: 25 μl of 100, 1000 or 10,000 ng/ml competitor; peptide significant in the highest concentration; P=0.01 by Student's T-Test; FIG. 8
Procedure: A homogeneous RIA assay was developed for measurement of auto-antibodies with reactivity towards the isomerised form of the epitope Trp-Leu-Asn-Gly-Lys-Glu-Tyr derived from the IgG CH^2 region. The assay was performed by incubating serum samples with ^125I Thy-GA-Trp-Leu-*Asx-Gly-Lys-Glu-Tyr over-night followed by precipitation of immune-complexes with protein A Sepharose.
Serum samples are diluted 1:200 in IMP buffer (IMP-buffer: 10 mM Na-Phosphate, pH 7.4, 140 mM NaCl, 5 mM EDTA, 0.5% Triton X-100, 0.1% BSA, 10 μg/ml soy-bean trypsin inhibitor). A Thy-GA-Trp-Leu-*Asx-Gly-Lys-Glu-Tyr conjugate is prepared as described in example 2 and iodinated with ^125I using the chloramine T protocol: 100 μg of the conjugate is diluted in 0.25 M Na2HPO4 to a total volume of 140 μl. 1.5 mCi Na^125I is added followed by 10 μL Chloramin-T (1 mg/ml, prepared freshly). The solution is vortexed for 30 seconds and 150 μL methionine (1 mg/ml) is added and immediately vortexed for 120 sec. The tracer is purified on size exclusion column (type: BIOSEP SEC S-2000, size: 300×7.80 mm) equilibrated with PBS containing 1% BSA Flow rate 1.0 ml/min. 500 μl fractions are collected and analysed in a scintillation counter (γ-counter). The fractions containing the tracer are pooled and used in the homogeneous RIA assay format. […]

[4] = test system: auto-antibodies in RA sera; test: ELISA of serum auto-antibodies on MTP coated with Thy-GA peptide conjugate (Example 2); assay type: binding, human; conditions: RA RF+ sera vs RA RF- sera vs control sera; serum diluted one-hundred fold; conjugate coated at 10 μg/ml; FIG. 5
Source text: It was investigated whether auto-antibodies would recognise an Asn-315 derived septa-peptide and whether such auto-antibodies are a characteristic feature of rheumatoid arthritis. In order to carry out such investigations the IgG Fc Asn-315 derived (βL) septa-peptide Trp-Leu-Asp-β-Gly-Lys-Glu-Tyr, was manufactured synthetically. The peptide used was a preparation of linear (αL form) Trp-Leu-Asn-Gly-Lys-Glu-Tyr peptide heated to promote isomerisation by the following procedure. The peptide was dissolved in the buffer and heated for 4 hours at 90° C. to promote isomerisation and/or optical inversion. The resulting mix of isomerised (βL) optically inverted (αD and βD) and linear (αL) peptides were analysed by RP-HPLC using a 15-35% acetonitrile gradient in 0.1% TFA over 10 minutes with a flow rate of 1 ml/min, and the isomerisation status of the resulting peaks were studied by amino-acid analysis as described above. This peptide was dissolved at 5 mg/ml in 0.2 M Na-Phosphate pH 9.2. […]
0.5 ml thyroglobulin (30 mg/ml) in 0.1 M Na-phosphate buffer pH 8.0, was added drop-wise (over 2 minutes) and under constant mixing to 0.5 mL of the following solution: 10% GA, 40% H2O, 50% 0.2 M Na-Phosphate pH 8.0. […] The final volume was adjusted to 1500 μL and the protein concentration was determined by a BioRad protein assay performed according to the manufacturers instructions. […]

Substance: Trp-Leu-Asp-β-Gly-lys-Glu-Tyr [VII]
- reactivity of purified RA auto-antibodies towards cellulose-bound peptide [1]: strong reactivity

Substance: Pro-Ser-Glu-γ-Gly-Lys-Gly-Arg-Gly
- inhibition of binding of the 125I conjugate to human immunoglobulin by free peptide [2]: specifically inhibited

Substance: Trp-Leu-Asp-β-Gly-Lys-Glu-Tyr
- competition of the binding of RA autoantibodies to Thy-GA-Trp-Leu-*Asx-Gly-Lys-Glu-Tyr coated plates (RA autoantibodies): able to compete out the binding
- reactivity in RIA competition (percent inhibition in the presence of competing peptide), group basis [3]: significant reactivity

Substance: Trp-Leu-*Asx-Gly-Lys-Glu-Tyr (WLNGKEY; not fully specified (residue 3); printed as Trp-Leu-*Asx-Gly-Lys-Glu-Tyr; also: position 3 Asx: mixture of αD Asn/Asp, βD and βL Asp after heat isomerisation) [linear Trp-Leu-Asn-Gly-Lys-Glu-Tyr heated 4 hours at 90° C; in b143 coated as Thy-GA conjugate]
- auto-antibody reactivity (ELISA signal, absorbency at 450 nm) compared between patient groups [4]: elevated auto-antibody reactivity
- competition of the binding of RA autoantibodies to Thy-GA-Trp-Leu-*Asx-Gly-Lys-Glu-Tyr coated plates (RA autoantibodies): competed out

Substance: His-Gln-Asp-Trp-Leu-Asp-β-Gly [peptide IV]
- reactivity of purified RA auto-antibodies towards cellulose-bound peptide [1]: strong reactivity
